In ChEMBL document CHEMBL3639134, “Diphenylmethane derivatives as SGLT2 inhibitors” (2015):

target: T1, Sodium/glucose cotransporter 2 (Homo sapiens, UniProt P31639); assay: Inhibition Assay: For sodium-dependent glucose transport assay, cells expressing hSGLT2 were seeded into a 96-well culture plate at a density of 5x10^4 cells/well in RPMI medium 1640 containing 10% fetal bovine serum. The cells were used 1 day after plating. They were incubated in pretreatment buffer (10 mM HEPES, 5 mM Tris, 140 mM choline chloride, 2 mM KCl, 1 mM CaCl2, and 1 mM MgCl2, pH 7.4) at 37 C. for 10 min. They were then incubated in uptake buffer (10 mM HEPES, 5 mM Tris, 140 mM NaCl, 2 mM KCl, 1 mM CaCl2, 1 mM MgCl2, and 1 mM 14C-nonlabeled AMG pH 7.4) containing 14C-labeled AMG (8 uM) and the inventive compound or dimethyl sulfoxide (DMSO) vehicle at 37 C. for 2 h. Cells were washed twice with washing buffer (pretreatment buffer containing 10 mM AMG at room temperature) and then the radioactivity was measured using a liquid scintillation counter. IC50 was determined by nonlinear regression analysis using GraphPad PRISM [Katsuno, K. et al. J. Pharmacol. Exp. Ther. 2007, 320, 323-330].
T1 sequence (P31639 whole entry): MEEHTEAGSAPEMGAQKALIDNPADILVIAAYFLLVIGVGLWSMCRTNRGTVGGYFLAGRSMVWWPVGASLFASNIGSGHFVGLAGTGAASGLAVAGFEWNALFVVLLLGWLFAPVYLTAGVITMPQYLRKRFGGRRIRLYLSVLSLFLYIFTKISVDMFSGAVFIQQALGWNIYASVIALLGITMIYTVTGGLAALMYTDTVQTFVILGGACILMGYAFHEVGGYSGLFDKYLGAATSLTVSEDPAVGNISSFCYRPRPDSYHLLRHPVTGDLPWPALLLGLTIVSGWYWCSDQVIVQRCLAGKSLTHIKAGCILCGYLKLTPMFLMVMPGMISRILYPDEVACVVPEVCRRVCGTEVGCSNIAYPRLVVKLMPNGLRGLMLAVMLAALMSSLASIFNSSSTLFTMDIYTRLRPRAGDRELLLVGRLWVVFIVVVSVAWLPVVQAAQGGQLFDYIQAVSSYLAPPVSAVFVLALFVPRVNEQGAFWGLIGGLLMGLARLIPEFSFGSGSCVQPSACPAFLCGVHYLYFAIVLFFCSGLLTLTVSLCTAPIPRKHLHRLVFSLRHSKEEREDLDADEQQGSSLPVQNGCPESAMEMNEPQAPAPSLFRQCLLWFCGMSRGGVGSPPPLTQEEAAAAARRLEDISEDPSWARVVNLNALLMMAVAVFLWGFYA

| SMILES | IC50 [nM] |
| --- | --- |
| OC[C@H]1O[C@@H](c2cc(Cc3ccc(N4CCC4)cc3)c(Cl)c3c2CCO3)[C@H](O)[C@@H](O)[C@@H]1O | 3.49 |
| CCOc1ccc(Cc2cc([C@@H]3O[C@H](CO)[C@@H](O)[C@H](O)[C@H]3O)c3c(c2C2CC2)OCC3)cc1 | 13.8 |

The next compounds have a lower IC50 than those just listed; values first:

| IC50 [nM] | SMILES |
| --- | --- |
| 2.42 | CCOc1ccc(Cc2cc([C@@H]3O[C@H](CO)[C@@H](O)[C@H](O)[C@H]3O)c3c(c2Cl)NCCO3)cc1 |
| 1.75 | OC[C@H]1O[C@@H](c2cc(Cc3ccc(N4CCC4)cc3)c(Cl)c3c2CCC3)[C@H](O)[C@@H](O)[C@@H]1O |
| 1.08 | CCOc1ccc(Cc2cc([C@@H]3O[C@H](CO)[C@@H](O)[C@H](O)[C@H]3O)c3c(c2Cl)OCO3)cc1 |
